In patent US20260070886A1, “QUINOLINE PIPERAZINE DERIVATIVES, PHARMACEUTICAL COMPOSITION AND USES THEREOF” (priority 2022, published 2026):

Columns and labels:
Assay type in all cases: cell-based
NCI-H-460 cells = assay: Cell cytotoxicity assay, NCI-H-460 cells; conditions: Homo sapiens, NCI-H460, 72 hours, percent cytotoxicity against DMSO control; for cytotoxicity at 1 µM: 1 μM compound, read-out: Cell toxicity NCI-H-460 cells 1 μM; for cytotoxicity at 10 µM: 10 μM compound, read-out: Cell toxicity NCI-H-460 cells 10 μM
Text: (§1) The following human derived non-small cell lung cancer cell lines were used to test the efficiency of the compounds to cause cell death and assess the anti-cancer properties of said compounds: 1. A549 cells: adenocarcinomic human alveolar basal epithelial cells; these cells are used as models for the study of lung cancer and the development of drug therapies against it • 2. NCI-H-460 cells are also human lung cancer cells, and • 3. NCI-H-522 cells are also human lung cancer cells.
(§2) 500 cells/well/30 μL were seeded in a 384 well cell culture plate. Incubated over night at 37° C., 5% CO2 in cell culture incubator. 10 μL of 4× compound was added to the plates, and incubated for 72 hours at 37° C., 5% CO2 in cell culture incubator. Assay DMSO control were included for 0% cytotoxicity control. Assay was terminated by addition of 10 μL of the reagent CTG 2.0 detection reagent #G9242. Plates were incubated for 20 minute incubation at room temperature with shaking Plate were read in Envision. Ultrasensitive luminescence and data was analyzed and percent cytotoxicity of compounds was determined against DMSO control.
(§3) All the compounds, A1-A116, were tested for cell toxicity using said non-small cell lung cancer cell lines using the above described method.

[1] = tested on: Non-small cell lung cancer cell lines; assay: Cell toxicity assay, overall statement; conditions: summary in words of Table 6
Text: as §1, §2, §3
These selected derivatives of Formula A were further tested to confirm their efficiency as anti-cancer compounds.

NCI-H-522 cells = assay: Cell cytotoxicity assay, NCI-H-522 cells; conditions: Homo sapiens, NCI-H522, 72 hours, percent cytotoxicity against DMSO control; for cytotoxicity at 1 µM: 1 μM compound, read-out: Cell toxicity NCI-H-522 cells 1 μM; for cytotoxicity at 10 µM: 10 μM compound, read-out: Cell toxicity NCI-H-522 cells 10 μM
Text: as §1, §2, §3

A549 cells = assay: Cell cytotoxicity assay, A549 cells; conditions: Homo sapiens, 72 hours, percent cytotoxicity against DMSO control; for cytotoxicity at 1 µM: 1 μM compound, read-out: Cell toxicity A549 cells 1 μM; for cytotoxicity at 10 µM: 10 μM compound, read-out: Cell toxicity A549 cells 10 μM
Text: as §1, §2, §3

| SMILES | cytotoxicity at 1 µM (NCI-H-460 cells) | cytotoxicity at 10 µM (NCI-H-460 cells) | activity against Non-small cell lung cancer (cell toxicity) [1] | cytotoxicity at 1 µM (NCI-H-522 cells) | cytotoxicity at 10 µM (NCI-H-522 cells) | cytotoxicity at 1 µM (A549 cells) | cytotoxicity at 10 µM (A549 cells) |
| --- | --- | --- | --- | --- | --- | --- | --- |
| FC(F)(F)c1cc(N2CCN(c3ccnc4cc(Cl)ccc34)CC2)nc(N2CCCCCC2)n1 [Compound A21, 4-(4-(2-(azepan-1-yl)-6-(trifluoromethyl)pyrimidin-4-yl)piperazin-1-yl)-7-chloroquinoline] | -15% | -8% | active | 1% | 9% | 13% | 23% |
| Fc1cccc(F)c1Nc1nc(N2CCN(c3ccnc4cc(Cl)ccc34)CC2)cc(C(F)(F)F)n1 [Compound A33, 4-(4-(7-chloroquinolin-4-yl)piperazin-1-yl)-N-(2,6-difluorophenyl)-6-(trifluoromethyl)pyrimidin-2-amine] | -9% | 3% | active | 2% | 17% | 8% | -8% |
| COc1cc(Nc2nc(N3CCN(c4ccnc5cc(Cl)ccc45)CC3)cc(C(F)(F)F)n2)cc(C(F)(F)F)c1 [Compound A6, 4-(4-(7-chloroquinolin-4-yl)piperazin-1-yl)-N-(3-methoxy-5-(trifluoromethyl)phenyl)-6-(trifluoromethyl)pyrimidin-2-amine] | -7% | -1% | active | 7% | 21% | 15% | 4% |
| Cc1cc(N2CCN(c3ccnc4cc(Cl)ccc34)CC2)nc(N2CCCCC2)n1 [Compound A12, 7-chloro-4-(4-(6-methyl-2-(piperidin-1-yl)pyrimidin-4-yl)piperazin-1-yl)quinoline] | -9% | 99% | active | 5% | 99% | 10% | 99% |
| COc1cc(Nc2nc(C)cc(N3CCN(c4ccnc5cc(C(F)(F)F)ccc45)CC3)n2)cc(OC)c1 [Compound A44, N-(3,5-dimethoxyphenyl)-4-methyl-6-(4-(7-(trifluoromethyl)quinolin-4-yl)piperazin-1-yl)pyrimidin-2-amine] | 0% | 7% | active | 8% | 26% | 26% | 18% |
| COc1cccc(Nc2nc(C)cc(N3CCN(c4ccnc5cc(Cl)ccc45)CC3)n2)c1 [Compound A4, 4-(4-(7-chloroquinolin-4-yl)piperazin-1-yl)-N-(3-methoxyphenyl)-6-methylpyrimidin-2-amine] | -4% | 71% | active | 14% | 57% | 47% | 95% |
| Cc1cc(N2CCN(c3ccnc4cc(Cl)ccc34)CC2)nc(N2CCCC2)n1 [Compound A11, 7-chloro-4-(4-(6-methyl-2-(pyrrolidin-1-yl)pyrimidin-4-yl)piperazin-1-yl)quinoline] | -12% | -4% | active | 2% | 9% | 16% | 10% |
| CN1CCN(c2nc(N3CCN(c4ccnc5cc(Cl)ccc45)CC3)cc(C(F)(F)F)n2)CC1 [Compound A23, 7-chloro-4-(4-(2-(4-methylpiperazin-1-yl)-6-(trifluoromethyl)pyrimidin-4-yl)piperazin-1-yl)quinoline] | -15% | -2% | active | 1% | 9% | 12% | 13% |
| COc1cc(Nc2nc(N3CCN(c4ccnc5cc(C(F)(F)F)ccc45)CC3)cc(C(F)(F)F)n2)cc(OC)c1 [Compound A45, N-(3,5-dimethoxyphenyl)-4-(trifluoromethyl)-6-(4-(7-(trifluoromethyl)quinolin-4-yl)piperazin-1-yl)pyrimidin-2-amine] | 0% | 12% | active | 7% | 55% | 8% | 83% |
| Cc1cc(N2CCN(c3ccnc4cc(Cl)ccc34)CC2)nc(N2CCOCC2)n1 [Compound A16, 4-(4-(4-(7-chloroquinolin-4-yl)piperazin-1-yl)-6-methylpyrimidin-2-yl)morpholine] | -11% | -6% | active | 8% | 12% | 9% | -17% |
| FC(F)(F)c1cc(N2CCN(c3ccnc4cc(Cl)ccc34)CC2)nc(N2CCCC2)n1 [Compound A19, 7-chloro-4-(4-(2-(pyrrolidin-1-yl)-6-(trifluoromethyl)pyrimidin-4-yl)piperazin-1-yl)quinoline] | -8% | 45% | active | 11% | 48% | 25% | 87% |
| COc1cc(Nc2nc(C)cc(N3CCN(c4ncnc5ccccc45)CC3)n2)cc(OC)c1 [Compound A46, N-(3,5-dimethoxyphenyl)-4-methyl-6-(4-(quinazolin-4-yl)piperazin-1-yl)pyrimidin-2-amine] | -2% | 44% | active | 2% | 66% | 25% | 98% |
| Cc1cc(N2CCN(c3ccnc4cc(Cl)ccc34)CC2)nc(N2CCCCCC2)n1 [Compound A13, 4-(4-(2-(azepan-1-yl)-6-methylpyrimidin-4-yl)piperazin-1-yl)-7-chloroquinoline] | -11% | 47% | active | 3% | 48% | 14% | 88% |
| Cc1cc(N2CCN(c3ccnc4cc(Cl)ccc34)CC2)nc(Nc2ccccc2)n1 [Compound A39, 4-(4-(7-chloroquinolin-4-yl)piperazin-1-yl)-6-methyl-N-phenylpyrimidin-2-amine] | -11% | -4% | active | 1% | 15% | 4% | 18% |
| FC(F)(F)c1cc(N2CCN(c3ccnc4cc(Cl)ccc34)CC2)nc(N2CCOCC2)n1 [Compound A24, 4-(4-(4-(7-chloroquinolin-4-yl)piperazin-1-yl)-6-(trifluoromethyl)pyrimidin-2-yl)morpholine] | -9% | -6% | active | 0% | 8% | -1% | 22% |
| FC(F)(F)c1cc(N2CCN(c3ccnc4cc(Cl)ccc34)CC2)nc(Nc2ccccc2)n1 [Compound A40, 4-(4-(7-chloroquinolin-4-yl)piperazin-1-yl)-N-phenyl-6-(trifluoromethyl)pyrimidin-2-amine] | -12% | -7% | active | 6% | 11% | 15% | 8% |
| COc1cc(Nc2nc(C)cc(N3CCN(c4ccnc5cc(Cl)ccc45)CC3)n2)cc(C(F)(F)F)c1 [Compound A2, 4-(4-(7-chloroquinolin-4-yl)piperazin-1-yl)-N-(3-methoxy-5-(trifluoromethyl)phenyl)-6-methylpyrimidin-2-amine] | -8% | -3% | active | 4% | 14% | 9% | 1% |
